Measured values reported in patent publication US8815535B2, “Disk diffusion assay for oritavancin” (The Medicines Company, priority 2011, dated 2014).
Values joined by “and” are separate entries in the source; they are usually repeats but may differ in a detail not shown here. Identical values can stand only once. Like-named read-outs stand apart in the source and are kept apart here.

Tested on: hVISA NRS2
Experiment: Disk diffusion assay (zone of inhibition)
Type: cell-based, Staphylococcus aureus
Details: for zone of inhibition at 90 µg/disc: 90 μg oritavancin; for zone of inhibition at 180 µg/disc: 180 μg oritavancin; for zone of inhibition at 12.5 µg/disc: 12.5 μg in 4% P80/Span 80 (1:1); for zone of inhibition at 200 µg/disc: 200 μg in 4% P80/Span 80 (1:1)
From the text: The study was designed to identify conditions that improve oritavancin diffusion in agar and consequently yield a zone diameter ≧15 mm for the CLSI quality control strain MSSA ATCC 25923. Excipients that increased the disk diffusion of oritavancin in agar relative to disks containing only oritavancin were identified and selected for further study. […] A prediffusion step at room temperature was introduced to maximize oritavancin diffusion prior to initiation of bacterial growth. In this step, the antimicrobial disks were placed on agar plates seeded with a bacterial isolate and incubated at room temperature for 3 hours. Plates were then incubated overnight at 37° C. Zone diameters around the disks in which bacterial growth was inhibited were measured with a ruler and reported in millimeters.
Ethanol-sterilized Whatman paper disks (6 mm diameter) were allowed to dry then impregnated with 20 microliters of oritavancin solution containing total amounts ranging from 90 to 360 micrograms. Disks were allowed to dry at room temperature for various times prior to use.
Bacterial suspensions were prepared and adjusted to an optical density of 0.1 at 600 nm. Standard cation-adjusted Mueller Hinton agar plates (90 mm diameter) were seeded with bacterial suspensions by initially swabbing the center of plate then moving outward towards the edge. The plate was swabbed a second time, perpendicular to the orientation of the first swab. To assess the impact of prediffusion on diameter of inhibition zones, two disks were immediately placed on one half of the plate and the plate was incubated for 3 hours at room temperature. After 3 hours, two additional disks were placed on the other half of the plate then the plate was incubated overnight at 37° C. Zone diameters were measured with a ruler and reported in millimeters.
Oritavancin powder was dissolved in freshly-prepared solutions of the indicated excipients at concentrations of 0.625, 1.25, 2.5, 5, and 10 mg/ml (adjusted for potency based on lot 875561L00 purity of 83.1%) by vortexing for a minimum of 5 minutes. Oritavancin solutions in the various excipients, while not visually clear, were free from any apparent particulates as assessed visually. Sterile Oxoid blank disks were impregnated with 20 μl of these oritavancin solutions, resulting in oritavancin disk loads ranging from 12.5 to 200 μg. Unless indicated otherwise, disks were allowed to dry overnight at room temperature prior to use.
Bacterial suspensions from isolated colonies on overnight cation-adjusted Mueller Hinton agar plates were prepared in sterile saline and adjusted to an optical density of 0.1 at 600 nm Standard cation-adjusted Mueller Hinton agar plates (90 mm diameter) were seeded with bacterial suspensions by initially swabbing the center of plate then moving outward. Swabbing was continued at a right angle and then at an oblique angle to the first and second swabs. Disks were placed upon the seeded plates with sterile forceps. Plates were then incubated overnight at 37° C. and inhibition zone diameters were measured with a ruler and reported in millimeters.

[1] = Staphylococcus aureus, NRS2, 192 h, NRS2, 2.5% P80, disks stored 8 days, prediffusion, read-out: Average zone diameter
[2] = Staphylococcus aureus, NRS2, 336 h, NRS2, 5% P80, disks stored 14 days, prediffusion, read-out: Average zone diameter
[3] = Staphylococcus aureus, NRS2, 336 h, NRS2, 10% P80, disks stored 14 days, prediffusion, read-out: Average zone diameter
[4] = Staphylococcus aureus, NRS2, NRS2, calcium alginate swab, dried overnight, read-out: Inhibition zone diameter
[5] = Staphylococcus aureus, NRS2, NRS2, cotton swab, dried overnight, estimate of diameter

Structure (SMILES): CN[C@H](CC(C)C)C(=O)N[C@H]1C(=O)N[C@@H](CC(N)=O)C(=O)N[C@H]2C(=O)N[C@H]3C(=O)N[C@H](C(=O)N[C@H](C(=O)O)c4cc(O)cc(O)c4-c4cc3ccc4O)[C@H](O[C@H]3C[C@](C)(N)[C@@H](O)[C@H](C)O3)c3ccc(c(Cl)c3)Oc3cc2cc(c3O[C@@H]2O[C@H](CO)[C@@H](O)[C@H](O)[C@H]2O[C@H]2C[C@](C)(NCc3ccc(-c4ccc(Cl)cc4)cc3)[C@@H](O)[C@H](C)O2)Oc2ccc(cc2Cl)[C@H]1O [oritavancin, N-(4-(4-chlorophenyl)benzyl)A82846B]
- Inhibition zone diameter (NRS2, 25 μg (20 μl of 1.25 mg/ml) in 4% P80/Span 80 (1:1), calcium alginate swab, dried overnight): 10 mm and 12, 12 mm
- zone of inhibition at 360 µg/disc (Staphylococcus aureus, NRS2, 3 h, NRS2, 360 μg oritavancin, excipient 10% HPCD, disks made same day, 3 h prediffusion, average of 2 disks, read-out: Average zone diameter): 17.5 mm
- zone of inhibition at 90 µg/disc [1]: 14 mm
- zone of inhibition at 180 µg/disc [1]: 14.8 mm
- zone of inhibition at 360 µg/disc (Staphylococcus aureus, NRS2, 192 h, NRS2, 360 μg in 5% P80, Experiment 2, disks stored 8 days, no prediffusion, read-out: Zone diameter (mm ± SD)): 14.3 ± 0.4 mm
- zone of inhibition at 360 µg/disc (Staphylococcus aureus, NRS2, 192 h, NRS2, 360 μg oritavancin, 2.5% P80, disks stored 8 days, prediffusion, read-out: Average zone diameter): 15 mm
- zone of inhibition at 90 µg/disc [2]: 15 mm
- zone of inhibition at 90 µg/disc [3]: 15.8 mm
- zone of inhibition at 180 µg/disc [2]: 16 mm
- zone of inhibition at 180 µg/disc [3]: 16 mm
- zone of inhibition at 360 µg/disc (Staphylococcus aureus, NRS2, 336 h, NRS2, 360 μg in 5% P80, Experiment 1, disks stored 14 days, no prediffusion, read-out: Zone diameter (mm ± SD)): 15.5 mm
- zone of inhibition at 360 µg/disc (Staphylococcus aureus, NRS2, 336 h, NRS2, 360 μg oritavancin, 5% P80, disks stored 14 days, prediffusion, read-out: Average zone diameter): 18 mm
- zone of inhibition at 360 µg/disc (Staphylococcus aureus, NRS2, 336 h, NRS2, 360 μg oritavancin, 10% P80, disks stored 14 days, prediffusion, read-out: Average zone diameter): 16.5 mm
- zone of inhibition at 12.5 µg/disc [4]: 12.5 mm
- zone of inhibition at 12.5 µg/disc [5]: 13 mm
- zone of inhibition at 1250 µg/mL (Staphylococcus aureus, NRS2, NRS2, 25 μg (20 μl of 1.25 mg/ml) in 4% P80/Span 80 (1:1), calcium alginate swab, dried overnight, read-out: Inhibition zone diameter): 16 mm
- zone of inhibition at 25 µg/disc (Staphylococcus aureus, NRS2, NRS2, 25 μg in 4% P80/Span 80 (1:1), cotton swab, dried overnight, estimate of diameter): 17 mm
- zone of inhibition at 50 µg/disc (Staphylococcus aureus, NRS2, NRS2, 50 μg in 4% P80/Span 80 (1:1), calcium alginate swab, dried overnight, read-out: Inhibition zone diameter): 15 mm
- zone of inhibition at 50 µg/disc (Staphylococcus aureus, NRS2, NRS2, 50 μg in 4% P80/Span 80 (1:1), cotton swab, dried overnight, estimate of diameter): 17 mm
- zone of inhibition at 50 µg/disc (Staphylococcus aureus, NRS2, NRS2, 50 μg, 4% P80/Span 80 ratio 50:50, dried overnight, estimate of diameter): 16 mm
- zone of inhibition at 50 µg/disc (Staphylococcus aureus, NRS2, NRS2, 50 μg, 4% P80/Span 80 ratio 60:40, dried overnight, estimate of diameter): 15 mm
- zone of inhibition at 50 µg/disc (Staphylococcus aureus, NRS2, NRS2, 50 μg, 4% P80/Span 80 ratio 70:30, dried overnight, estimate of diameter): 14 mm
- zone of inhibition at 50 µg/disc (Staphylococcus aureus, NRS2, NRS2, 50 μg, 4% P80/Span 80 ratio 80:20, dried overnight, estimate of diameter): 14 mm
- zone of inhibition at 50 µg/disc (Staphylococcus aureus, NRS2, NRS2, 50 μg, 4% P80/Span 80 ratio 90:10, dried overnight, estimate of diameter): 12 mm
- zone of inhibition at 100 µg/disc (Staphylococcus aureus, NRS2, NRS2, 100 μg in 4% P80/Span 80 (1:1), calcium alginate swab, dried overnight, read-out: Inhibition zone diameter): 11 mm
- zone of inhibition at 200 µg/disc [4]: 10 mm
- zone of inhibition at 200 µg/disc [5]: 13 mm
